From US20030050247A1, “Chemically-modified peptides, compositions, and methods of production and use” (priority 2000, published 2003)
Converted amounts (≈) assume the structure as drawn. Read-outs that look alike come from different tables or passages of the source. The star is where a group is joined. Octanoyl = CCCCCCCC(=O)*

Key:
[1] = tested on: E. coli; assay: Antimicrobial activity of peptide-containing fiber (textiles); conditions: Example 17
[2] = in vitro; conditions: Vero cells (ATCC CCL81), non-infected
[3] = tested on: Salmonella typhimurium and Clostridium botulinum; type: cell-based; conditions: food preservative; Example 16
[4] = tested on: K. pneumoniae and P. aeruginosa; assay: Antimicrobial assay (MIC, growth inhibited by >90%), Examples 2 and 3; conditions: for efficacy (in words): Example 3, second octyl group, compared to the -NH2 peptides, Trp replaced
[5] = tested on: Aspergillus niger (ATCC 16888); conditions: 22 h at 30° C.
[6] = tested on: C. acidivorans; assay: Antimicrobial assay, bacterial paper mill isolates; type: cell-based, Comamonas acidivorans; conditions: paper mill isolate; TGE medium; 30° C.
[7] = tested on: Aeromonas; conditions: 18 h
[8] = tested on: Desulfovibrio desulfuricans (ATCC 7757)
[9] = tested on: P. aeruginosa; assay: Antimicrobial assay, bacterial paper mill isolates; type: cell-based, Pseudomonas aeruginosa; conditions: paper mill isolate; TGE medium; 30° C.
[10] = tested on: E. cloacae; assay: Antimicrobial assay, bacterial paper mill isolates; type: cell-based, Enterobacter cloacae; conditions: paper mill isolate; TGE medium; 30° C.
[11] = tested on: Bacillus; assay: Antimicrobial assay, bacterial cooling tower isolates; type: cell-based; conditions: cooling tower isolate; TGE; 18 hr at 35° C.
[12] = tested on: X. maltophila; assay: Antimicrobial assay, bacterial paper mill isolates; type: cell-based, Xanthomonas maltophila; conditions: paper mill isolate; TGE medium; 37° C.

With Nonanoyl-Arg-Arg-NH-nonyl the MIC [1] was “≦ 2 μg/ml”.

Work on `CCCCCCCCNC(=O)[C@H](CCCNC(=N)N)NC(=O)[C@H](CCCNC(=N)N)NC(=O)CCCCCCC` [Octanoyl-Arg-Arg-NH-octyl] yielded a viability at 125 ppm [2] of 59%.

For Octanoyl-Arg-Cys-NH-octyl, the MIC [3] was “≦ 15 μg/ml”.

In the case of Octanoyl-Arg-Phe-NH-octyl, the MIC [3] is reported as “≦ 8 μg/ml” and the “efficacy (in words)” value [4] is reported as “enhanced efficacy”.

In the case of Octanoyl-Arg-Ala-NH-octyl, the MIC [3] is reported as “≦ 15 μg/ml”.

For “Octanoyl-Arg-Phe-Phe-Arg-NH-octyl (RFFR; HELM PEPTIDE1{[CCCCCCCC(=O)[*:2]].R.F.F.R.[CCCCCCCCN[*:1]]}$$$$V2.0; SMILES CCCCCCCCNC(=O)[C@H](CCCNC(=N)N)NC(=O)[C@H](Cc1ccccc1)NC(=O)[C@H](Cc1ccccc1)NC(=O)[C@H](CCCNC(=N)N)NC(=O)CCCCCCC)”, the MIC [1] was “≦ 4 μg/ml”.

In the case of Decanoyl-Arg-NH-decyl, the MIC [1] is reported as “≦ 15 μg/ml”.

In the case of `CCCCCCCCCNC(=O)[C@H](CCCNC(=N)N)NC(=O)CCCCCCCC` [Nonanoyl-Arg-NH-nonyl], the MIC [3] is reported as “≦ 4 μg/ml”, the Growth was inhibited ([5]; 1 μg/ml of peptide) is reported as 43% and the Growth was inhibited ([5]; 7.8 μg/ml) is reported as 83%. The Growth was inhibited ([5]; concentrations as low as 15.6 μg/ml) was 98%.

With Octanoyl-Arg-Trp-NH2 the MIC [3] was “≦ 15 μg/ml”, the “peptide efficacy (MIC values, in words)” value ([4]; Example 2, acyl chain length and amino acid composition) was “greatest activity” and the MIC [1] was “≦ 15 μg/ml”.

With Octanoyl-Arg-Arg-Arg-NH-octyl the MIC [1] was “≦ 8 μg/ml”.

With Octanoyl-Arg-Trp-Phe-NH2 the MIC [3] was “≦ 15 μg/ml” and the MIC [1] was “≦ 15 μg/ml”.

With Octanoyl-Lys-Arg-NH-octyl the MIC [3] was “≦ 4 μg/ml”.

`CCCCCCCCNC(=O)[C@H](CCCNC(=N)N)NC(=O)CCCCCCC` [Octanoyl-R-NH-octyl, Octanoyl-Arg-NH-octyl] showed an MIC [6] greater than 313 µg/mL, an MIC [7] of 62.5 µg/mL (≈ 152 µM) and an MIC [8] of 62.5 to 125 µg/mL. The MIC [9] was “≦10 μg/ml”, the MIC [10] was greater than 313 µg/mL and the MIC [11] was 15.6 µg/mL (≈ 37.9 µM). The MIC [12] was “≦5 μg/ml”.

For Octanoyl-Arg-Tyr-NH-octyl, the “efficacy (in words)” value [4] was “enhanced efficacy”.
